Measurements reported in paper PMC8063935, “Amphipathic Peptide Antibiotics with Potent Activity against Multidrug-Resistant Pathogens” (Pharmaceutics, 2021).
Converted amounts (≈) assume the structure as drawn. Like-named read-outs stand apart in the source and are kept apart here. Where a SMILES comes first, the peptide text is derived from it.

Columns and labels:
MRSA T144 = assay: microbe, parasite or virus in culture; assay type: cell-based, Staphylococcus aureus; details: for MIC: micro-broth dilution, CLSI 2018, ~1.5 × 10^6 CFUs per mL, 37 °C, 16–18 h; for IC50: OD600 of micro-broth dilution plates, four-parameter fit
Procedure: (§1) The MICs of all drugs were determined by micro-broth dilution method according to CLSI 2018 guidelines. The bacterial suspension used in the experiment was appropriate 1.5 × 10^6 colony-forming units (CFUs) per mL and mixed with the drug solution in a sterilized 96-well microtiter plate (Corning, New York, USA), then incubated at 37 °C for 16–18 h. MIC value was defined as the minimum drug concentration without visible bacteria. Meanwhile, the density of the bacteria at 600 nm was measured, and the corresponding IC50 was calculated using log (inhibitor) vs. response variable slope (four parameters) in Graphpad Prism version 8.3.0 software (San Diego, CA, USA). To assess the role of ROS production in the antibacterial activity of WW307, increasing concentrations of N-acetylcysteine (NAC) from 0 to 5 mM were added in culture medium, followed by MICs test.

S. aureus G16 (RIF^R) = assay: microbe, parasite or virus in culture; assay type: cell-based, Staphylococcus aureus; details: for IC50: OD600 of micro-broth dilution plates, four-parameter fit
Procedure: as §1

E. coli 1F28 (tet(X4)) = assay: microbe, parasite or virus in culture; assay type: cell-based, Escherichia coli; details: for MIC: micro-broth dilution, CLSI 2018, ~1.5 × 10^6 CFUs per mL, 37 °C, 16–18 h; for IC50: OD600 of micro-broth dilution plates, four-parameter fit
Procedure: as §1

[1] = system: E. coli B2 (mcr-1 + blaNDM-5); assay: microbe, parasite or virus in culture; assay type: cell-based, Escherichia coli; details: for IC50: OD600 of micro-broth dilution plates, four-parameter fit
Procedure: as §1

E. coli G92 (mcr-1) = assay: microbe, parasite or virus in culture; assay type: cell-based, Escherichia coli; details: for IC50: OD600 of micro-broth dilution plates, four-parameter fit
Procedure: as §1

E. coli C3 (blaNDM-1) = assay: MIC / IC50, micro-broth dilution; assay type: cell-based, Escherichia coli; details: for MIC: micro-broth dilution, CLSI 2018, ~1.5 × 10^6 CFUs per mL, 37 °C, 16–18 h; for IC50: OD600 of micro-broth dilution plates, four-parameter fit
Procedure: as §1

E. coli CP131 (mcr-3) = assay: MIC / IC50, micro-broth dilution; assay type: cell-based, Escherichia coli; details: for IC50: OD600 of micro-broth dilution plates, four-parameter fit
Procedure: as §1

E. coli G6 (blaNDM-5) = assay: MIC / IC50, micro-broth dilution; assay type: cell-based, Escherichia coli; details: for MIC: micro-broth dilution, CLSI 2018, ~1.5 × 10^6 CFUs per mL, 37 °C, 16–18 h; for IC50: OD600 of micro-broth dilution plates, four-parameter fit
Procedure: as §1

[2] = system: A. baumannii C222 (tet(X6)); assay: microbe, parasite or virus in culture; assay type: cell-based, Acinetobacter baumannii; details: for IC50: OD600 of micro-broth dilution plates, four-parameter fit
Procedure: as §1

[3] = system: P. cibarius HNCF44W (blaNDM-1 + tet(X6)); assay: MIC / IC50, micro-broth dilution; assay type: cell-based; details: for MIC: micro-broth dilution, CLSI 2018, ~1.5 × 10^6 CFUs per mL, 37 °C, 16–18 h; for IC50: OD600 of micro-broth dilution plates, four-parameter fit
Procedure: as §1

Sheep RBCs = assay: Hemolysis analysis; assay type: cell-based; details: 8% sheep red blood cell suspension, 37 °C, 1 h, released hemoglobin at 576 nm; PBS negative, ddH2O positive control
Procedure: The hemolytic activity on all peptides was evaluated based on previous report. Briefly, fresh Sheep RBCs were washed twice with phosphate buffer (PBS), and then 8% red blood cell suspension was prepared. The increasing concentrations of AMPs and melittin were mixed with 8% red blood cell suspension, respectively, and incubated at 37 °C for 1 h. The sterilized PBS and double-distilled water (ddH2O) were used as blank and positive control, respectively. Afterwards, the supernatant was centrifuged to measure the absorption of released hemoglobin at 576 nm by an Infinite M200 Microplate reader (Tecan, Männedorf, Switzerland). The corresponding hemolysis rate was calculated.

[4] = Staphylococcus aureus, read-out: MIC
[5] = Escherichia coli, read-out: MIC
[6] = S. aureus G16 (RIF^R), micro-broth dilution, CLSI 2018, ~1.5 × 10^6 CFUs per mL, 37 °C, 16–18 h
[7] = E. coli B2 (mcr-1 + blaNDM-5), micro-broth dilution, CLSI 2018, ~1.5 × 10^6 CFUs per mL, 37 °C, 16–18 h
[8] = E. coli G92 (mcr-1), micro-broth dilution, CLSI 2018, ~1.5 × 10^6 CFUs per mL, 37 °C, 16–18 h
[9] = E. coli CP131 (mcr-3), micro-broth dilution, CLSI 2018, ~1.5 × 10^6 CFUs per mL, 37 °C, 16–18 h
[10] = A. baumannii C222 (tet(X6)), micro-broth dilution, CLSI 2018, ~1.5 × 10^6 CFUs per mL, 37 °C, 16–18 h

## C[C@@H](O)[C@H]1C(=O)N2C(C(=O)O)=C(S[C@@H]3CN[C@H](C(=O)N(C)C)C3)[C@H](C)[C@H]12 [MEM, meropenem]
MRSA T144; [4]
  MIC: 1 µg/mL (≈ 2.61 µM)
S. aureus G16 (RIF^R); Staphylococcus aureus
  MIC: 2 µg/mL (≈ 5.22 µM)
E. coli 1F28 (tet(X4)); [5]
  MIC: 0.25 µg/mL (≈ 0.652 µM)
[1]; Escherichia coli
  MIC: 32 µg/mL (≈ 83.4 µM)
E. coli G92 (mcr-1); Escherichia coli
  MIC: < 0.125 µg/mL
E. coli C3 (blaNDM-1); [5]
  MIC: 8 µg/mL (≈ 20.9 µM)
E. coli CP131 (mcr-3); Escherichia coli
  MIC: < 0.125 µg/mL
E. coli G6 (blaNDM-5); [5]
  MIC: 64 µg/mL (≈ 167 µM)
[2]; Acinetobacter baumannii
  MIC: < 0.125 µg/mL
[3]; read-out: MIC
  MIC: > 16 µg/mL

## CC[C@H](C)[C@H](NC(=O)CN)C(=O)NCC(=O)N[C@@H](C)C(=O)N[C@H](C(=O)N[C@@H](CC(C)C)C(=O)N[C@@H](CCCCN)C(=O)N[C@H](C(=O)N[C@@H](CC(C)C)C(=O)N[C@H](C(=O)N[C@H](C(=O)NCC(=O)N[C@@H](CC(C)C)C(=O)N1CCC[C@H]1C(=O)N[C@@H](C)C(=O)N[C@@H](CC(C)C)C(=O)N[C@H](C(=O)N[C@@H](CO)C(=O)N[C@@H](Cc1c[nH]c2ccccc12)C(=O)N[C@H](C(=O)N[C@@H](CCCCN)C(=O)N[C@@H](CCCNC(=N)N)C(=O)N[C@@H](CCCCN)C(=O)N[C@@H](CCCNC(=N)N)C(=O)N[C@@H](CCC(N)=O)C(=O)N[C@@H](CCC(N)=O)C(N)=O)[C@@H](C)CC)[C@@H](C)CC)[C@@H](C)O)[C@@H](C)O)C(C)C)C(C)C [Melittin, melittin]
MRSA T144
  IC50: 3.54 µg/mL (≈ 1.24 µM)
  MIC: 4 µg/mL (≈ 1.41 µM)
S. aureus G16 (RIF^R); S. aureus G16 (RIF^R)
  IC50: 1.19 µg/mL (≈ 0.418 µM)
S. aureus G16 (RIF^R); [6]
  MIC: 2 µg/mL (≈ 0.703 µM)
E. coli 1F28 (tet(X4))
  IC50: 2.62 µg/mL (≈ 0.92 µM)
  MIC: 4 µg/mL (≈ 1.41 µM)
[1]; E. coli B2 (mcr-1 + blaNDM-5)
  IC50: 4.36 µg/mL
[1]; [7]
  MIC: 8 µg/mL
E. coli G92 (mcr-1); E. coli G92 (mcr-1)
  IC50: 3.55 µg/mL (≈ 1.25 µM)
E. coli G92 (mcr-1); [8]
  MIC: 4 µg/mL (≈ 1.41 µM)
E. coli C3 (blaNDM-1)
  IC50: 5.03 µg/mL (≈ 1.77 µM)
  MIC: 8 µg/mL (≈ 2.81 µM)
E. coli CP131 (mcr-3); E. coli CP131 (mcr-3)
  IC50: 3.39 µg/mL (≈ 1.19 µM)
E. coli CP131 (mcr-3); [9]
  MIC: 4 µg/mL (≈ 1.41 µM)
E. coli G6 (blaNDM-5)
  IC50: 2.38 µg/mL (≈ 0.836 µM)
  MIC: 4 µg/mL (≈ 1.41 µM)
[2]; A. baumannii C222 (tet(X6))
  IC50: 4.16 µg/mL (≈ 1.46 µM)
[2]; [10]
  MIC: 8 µg/mL (≈ 2.81 µM)
[3]
  IC50: 2.39 µg/mL (≈ 0.84 µM)
  MIC: 4 µg/mL (≈ 1.41 µM)
Sheep RBCs
  HL50 (peptide concentration that causes 50% hemolysis): 14.39 µg/mL

## CN(C)c1cc(NC(=O)CNC(C)(C)C)c(O)c2c1C[C@H]1C[C@H]3[C@H](N(C)C)C(O)=C(C(N)=O)C(=O)[C@@]3(O)C(O)=C1C2=O [TIG, tigecycline]
MRSA T144; [4]
  MIC: 0.25 µg/mL (≈ 0.427 µM)
S. aureus G16 (RIF^R); Staphylococcus aureus
  MIC: < 0.0625 µg/mL
E. coli 1F28 (tet(X4)); [5]
  MIC: 16 µg/mL (≈ 27.3 µM)
E. coli G92 (mcr-1); Escherichia coli
  MIC: 4 µg/mL (≈ 6.83 µM)
E. coli C3 (blaNDM-1); [5]
  MIC: 2 µg/mL (≈ 3.41 µM)
E. coli CP131 (mcr-3); Escherichia coli, E. coli CP131 (mcr-3), micro-broth dilution, CLSI 2018, ~1.5 × 10^6 CFUs per mL, 37 °C, 16–18 h, read-out: MIC
  MIC: 2 µg/mL (≈ 3.41 µM)
E. coli G6 (blaNDM-5); [5]
  MIC: 2 µg/mL (≈ 3.41 µM)
[2]; Acinetobacter baumannii
  MIC: 64 µg/mL (≈ 109 µM)
[3]; read-out: MIC
  MIC: 64 µg/mL (≈ 109 µM)

## CC(C)C[C@H](NC(=O)[C@H](Cc1c[nH]c2ccccc12)NC(=O)[C@H](Cc1c[nH]c2ccccc12)NC(=O)[C@@H](N)Cc1c[nH]c2ccccc12)C(=O)N[C@@H](CCCNC(=N)N)C(=O)N[C@@H](CCCNC(=N)N)C(=O)N[C@@H](CCCNC(=N)N)C(=O)N[C@@H](Cc1c[nH]c2ccccc12)C(N)=O [WW304] (H-WWWLRRRW-NH2)
MRSA T144
  IC50: 4.59 µg/mL (≈ 3.42 µM)
  MIC: 8 µg/mL (≈ 5.95 µM)
S. aureus G16 (RIF^R); S. aureus G16 (RIF^R)
  IC50: 2.11 µg/mL (≈ 1.57 µM)
S. aureus G16 (RIF^R); [6]
  MIC: 8 µg/mL (≈ 5.95 µM)
E. coli 1F28 (tet(X4))
  IC50: 18.13 µg/mL (≈ 13.5 µM)
  MIC: 32 µg/mL (≈ 23.8 µM)
[1]; E. coli B2 (mcr-1 + blaNDM-5)
  IC50: 36.12 µg/mL
[1]; [7]
  MIC: 64 µg/mL
E. coli G92 (mcr-1); E. coli G92 (mcr-1)
  IC50: 31.96 µg/mL (≈ 23.8 µM)
E. coli G92 (mcr-1); [8]
  MIC: 64 µg/mL (≈ 47.6 µM)
E. coli C3 (blaNDM-1)
  IC50: 34.76 µg/mL (≈ 25.9 µM)
  MIC: 64 µg/mL (≈ 47.6 µM)
E. coli CP131 (mcr-3); E. coli CP131 (mcr-3)
  IC50: 18.26 µg/mL (≈ 13.6 µM)
E. coli CP131 (mcr-3); [9]
  MIC: 32 µg/mL (≈ 23.8 µM)
E. coli G6 (blaNDM-5)
  IC50: 36.04 µg/mL (≈ 26.8 µM)
  MIC: 64 µg/mL (≈ 47.6 µM)
[2]; A. baumannii C222 (tet(X6))
  IC50: 34.74 µg/mL (≈ 25.9 µM)
[2]; [10]
  MIC: 64 µg/mL (≈ 47.6 µM)
[3]
  IC50: 33.60 µg/mL (≈ 25 µM)
  MIC: 64 µg/mL (≈ 47.6 µM)
Sheep RBCs
  HL50 (peptide concentration that causes 50% hemolysis): > 128 µg/mL

## colistin
MRSA T144
  MIC: 16 µg/mL
S. aureus G16 (RIF^R); [6]
  MIC: 1 µg/mL
E. coli 1F28 (tet(X4))
  MIC: 0.125 µg/mL
[1]; [7]
  MIC: 8 µg/mL
E. coli G92 (mcr-1); [8]
  MIC: 4 µg/mL
E. coli C3 (blaNDM-1)
  MIC: <0.125 µg/mL
E. coli CP131 (mcr-3); [9]
  MIC: 4 µg/mL
E. coli G6 (blaNDM-5)
  MIC: 0.5 µg/mL
[2]; [10]
  MIC: <0.125 µg/mL
[3]
  MIC: >256 µg/mL
